The values that follow are results of earlier work, collected in patent US20120087963A1, “DISINFECTANT COMPOSITION COMPRISING A BIGUANIDE COMPOUND” (BIO TECHNICS LIMITED, priority 2009, published 2012).

The data set relates to bacteria. The settings on record: typical, of the order of.

Consider polyaminopropyl biguanide [PAPB], for which the Bactericidal concentration is about 10 mg/L.
